Laboratory results published in patent US9624179B1, “Quinazoline derivative Lu1501 and preparing method and application thereof” (NANJING GENERAL HOSPITAL OF NANJING MILITARY REGION OF PLA, priority 2015, dated 2017).
Read-outs that look alike come from different tables or passages of the source.

Columns and labels:
Type in all cases: cell-based
[1] = tested on: U-118 MG (human astrocytoma); test: MTT inhibition of proliferation, U-118 MG; conditions: 48 h, read-out: Inhibitory Activity on the Proliferation of Tumor Cells (IC50 ± SD) U-118 MG
Experimental: (§1) The compound 8 of the invention was prepared into required concentrations using a culture medium containing 0.1% DMSO.
(§2) The seven tumor cells including MCF-7 (human breast cancer cell, ATCC:HTB-22), SK-BR-3 (human breast cancer cell, ATCC:HTB-30), A549 (human non-small cell lung cancer cell, ATCC:CRM-CCL-185), HCT116 (human colon cancer cell, ATCC:CCL-247), U-118 MG (human astrocytoma, ATCC:HTB-15), U-87 MG (human astrocytoma, ATCC:HTB-14), MDA-MB-468 (human breast cancer cell, ATCC:HTB-132) were all purchased from American Type Culture Collection (ATCC). […]
(§3) MCF-7, SK-BR-3, A549, HCT 116, U-118 MG U-87 MG and MDA-MB-468 cells in logarithmic phase with excellent growth conditions were grafted into a 96-well plate according to a density of 1×10^4 cells/mL, wherein each well was grafted 100 μl. […] A supernate was absorbed out carefully, 150 μl DMSO was added into each hole to dissolve purple residue (formazan), flatly oscillated for 10 min to completely dissolve deposits, then O.D. value (absorbancy) was measured on a microplate reader, wherein the wavelength was 570 nm. […]
(§4) The test was repeated for thrice. A diagram was made by plotting the inhibition rate against the concentration of the compound, and the IC50 (half effective inhibitive concentration) value of the compound 8 of the invention was calculated. […]

[2] = tested on: MDA-MB-468 (human breast cancer cell); test: MTT inhibition of proliferation, MDA-MB-468; conditions: MDA-MB-468, MTT, 48 h, read-out: Inhibitory Activity on the Proliferation of Tumor Cells (IC50 ± SD) MDA-MB-468
Experimental: as §1, §2, §3, §4

[3] = tested on: SK-BR-3 (human breast cancer cell); test: MTT inhibition of proliferation, SK-BR-3; conditions: SK-BR-3, MTT, 48 h, read-out: Inhibitory Activity on the Proliferation of Tumor Cells (IC50 ± SD) SK-BR-3
Experimental: as §1, §2, §3, §4

[4] = tested on: U-87 MG (human astrocytoma); test: MTT inhibition of proliferation, U-87 MG; conditions: 48 h, read-out: Inhibitory Activity on the Proliferation of Tumor Cells (IC50 ± SD) U-87 MG
Experimental: as §1, §2, §3, §4

[5] = tested on: MCF-7 (human breast cancer cell); test: MTT inhibition of proliferation, MCF-7; conditions: MCF7, MCF-7, MTT, 48 h, read-out: Inhibitory Activity on the Proliferation of Tumor Cells (IC50 ± SD) MCF-7
Experimental: as §1, §2, §3, §4

[6] = tested on: HCT116 (human colon cancer cell); test: MTT inhibition of proliferation, HCT 116; conditions: HCT 116, MTT, 48 h, read-out: Inhibitory Activity on the Proliferation of Tumor Cells (IC50 ± SD) HCT 116
Experimental: as §1, §2, §3, §4

[7] = tested on: A549 (human non-small cell lung cancer cell); test: MTT inhibition of proliferation, A549; conditions: 48 h, read-out: Inhibitory Activity on the Proliferation of Tumor Cells (IC50 ± SD) A549
Experimental: as §1, §2, §3, §4

SMILES	IC50 [1] [µM]	IC50 [2] [µM]	IC50 [3] [µM]	IC50 [4] [µM]	IC50 [5] [µM]	IC50 ([1]; Homo sapiens) [µM]	IC50 [6] [nM]	IC50 [7] [µM]	IC50 ([2]; Homo sapiens) [µM]	IC50 ([3]; Homo sapiens) [µM]	IC50 ([4]; Homo sapiens) [µM]
COc1cccc2c1C(=O)c1c(O)c3c(c(O)c1C2=O)C[C@@](O)(C(=O)CO)C[C@@H]3O[C@H]1C[C@H](N)[C@H](O)[C@H](C)O1 [ADR, Adriamycin amycin, reference compound]	13.5 ± 1.75	2.45 ± 0.31	4.65 ± 0.02	82.5 ± 7.15	–	–	–	–	–	–	–
COc1cc2ncnc(Nc3ccc(NCc4ccc(F)cc4)cc3)c2cc1OCCN1CCCC1 [Compound 8, N-[(4-fluorophenyl)methyl]-4-N-{7-methoxy-6-[(2-pyrrolidin-1-yl)hydroxyethyl]quinazolin-4-yl}phen-1,4-diamine]	–	–	–	–	16.1 ± 3.47	24.5 ± 2.68	2900 ± 1020	5.66 ± 1.01	19.4 ± 1.33	10.2 ± 0.86	5.45 ± 0.61
